The target of assay [1] is Gastrin/cholecystokinin type B receptor (Cavia porcellus). Description: Inhibition of binding of [3H]N-Me-N-Leu-CCK-8 to cholecystokinin type B receptor in guinea pig brain cortex.
Assay [2] deals with Gastrin/cholecystokinin type B receptor (Oryctolagus cuniculus). Description: In vitro inhibition of gastrin-induced [Ca2+] cytosolic elevation in isolated rabbit parietal cells.

pIC50: −log10 of the molar value. Structures can show the parent of a compound that is named as a salt.

In the case of `O=C(CC(NC(=O)CCC(NC(=O)c1cc(Cl)cc(Cl)c1)C(=O)N1CCC2(CCCC2)CC1)C(=O)O)NCc1ccccc1` (stereo not drawn) [2-[5-(8-Aza-spiro[4.5]dec-8-yl)-4-(3,5-dichloro-benzoylamino)-5-oxo-pentanoylamino]-N-benzyl-succinamic acid], the results for the pIC50 in assay [1] and in assay [2] were 6.41 and 7.12, respectively.
Taken in the same sequence, the figures for `O=C(O)CCC(Cc1ccccc1)NC(=O)CCC(NC(=O)c1cc(Cl)cc(Cl)c1)C(=O)N1CCC2(CCCC2)CC1` (stereo not drawn) [4-[5-(8-Aza-spiro[4.5]dec-8-yl)-4-(3,5-dichloro-benzoylamino)-5-oxo-pentanoylamino]-5-phenyl-pentanoic acid] were 6.80 and 7.07.
Taken in the same sequence, the figures for `O=C(O)CC[C@@H](NC(=O)CCC(NC(=O)c1cc(Cl)cc(Cl)c1)C(=O)N1CCC2(CCCC2)CC1)C(=O)Nc1cccc2ccccc12` (stereo partly drawn) [(R)-4-[5-(8-Aza-spiro[4.5]dec-8-yl)-4-(3,5-dichloro-benzoylamino)-5-oxo-pentanoylamino]-4-(naphthalen-1-ylcarbamoyl)-butyric acid] were 7.07 and 7.77.
For `O=C(CCC(NC(=O)c1cc(Cl)cc(Cl)c1)C(=O)N1CCC2(CCCC2)CC1)N[C@@H](Cc1c[nH]c2ccccc12)C(=O)O` (stereo partly drawn) [(S)-2-[5-(8-Aza-spiro[4.5]dec-8-yl)-4-(3,5-dichloro-benzoylamino)-5-oxo-pentanoylamino]-3-(1H-indol-3-yl)-propionic acid] the same measures were 6.67 and 7.46.
Regarding `O=C(O)CC[C@H](NC(=O)CCC(NC(=O)c1cc(Cl)cc(Cl)c1)C(=O)N1CCC2(CCCC2)CC1)C(=O)Nc1cccc2cccnc12` (stereo partly drawn) [(S)-4-[5-(8-Aza-spiro[4.5]dec-8-yl)-4-(3,5-dichloro-benzoylamino)-5-oxo-pentanoylamino]-4-(quinolin-8-ylcarbamoyl)-butyric acid; hydrochloride], the pIC50 (as a rule, the negative decadic logarithm of the IC50, by convention in mol/L) was 6.97 in assay [1] and 7.27 in assay [2].
Taken in the same sequence, the figures for `O=C(CCC(NC(=O)c1cc(Cl)cc(Cl)c1)C(=O)N1CCC2(CCCC2)CC1)NC(C(=O)O)c1ccccc1` (stereo not drawn) [[5-(8-Aza-spiro[4.5]dec-8-yl)-4-(3,5-dichloro-benzoylamino)-5-oxo-pentanoylamino]-phenyl-acetic acid] were 6.41 and 7.10.
Taken in the same sequence, the figures for `CN(C(=O)CCC(NC(=O)c1cc(Cl)cc(Cl)c1)C(=O)N1CCC2(CCCC2)CC1)c1ccc(C(=O)O)cc1` (stereo not drawn) [4-{[5-(8-Aza-spiro[4.5]dec-8-yl)-4-(3,5-dichloro-benzoylamino)-5-oxo-pentanoyl]-methyl-amino}-benzoic acid] were 5.85 and 5.97.
Turning to `O=C(O)CC[C@H](NC(=O)CCC(NC(=O)c1cc(Cl)cc(Cl)c1)C(=O)N1CCC2(CCCC2)CC1)C(=O)N1CCc2ccccc2C1` (stereo partly drawn) [(S)-4-[5-(8-Aza-spiro[4.5]dec-8-yl)-4-(3,5-dichloro-benzoylamino)-5-oxo-pentanoylamino]-5-(3,4-dihydro-1H-isoquinolin-2-yl)-5-oxo-pentanoic acid], the pIC50 is 6.85 in assay [1] and 7.31 in assay [2].
For `CN(CC(=O)O)C(=O)CCC(NC(=O)c1cc(Cl)cc(Cl)c1)C(=O)N1CCC2(CCCC2)CC1` (stereo not drawn) [{[5-(8-Aza-spiro[4.5]dec-8-yl)-4-(3,5-dichloro-benzoylamino)-5-oxo-pentanoyl]-methyl-amino}-acetic acid] the same measures were 5.81 and 5.55.
Taken in the same sequence, the figures for `CN(Cc1ccccc1)C(=O)CC[C@H](NC(=O)CCC(NC(=O)c1cc(Cl)cc(Cl)c1)C(=O)N1CCC2(CCCC2)CC1)C(=O)O` (stereo partly drawn) [(S)-2-[5-(8-Aza-spiro[4.5]dec-8-yl)-4-(3,5-dichloro-benzoylamino)-5-oxo-pentanoylamino]-4-(benzyl-methyl-carbamoyl)-butyric acid] were 7.11 and 7.26.
For `O=C(O)CC[C@H](NC(=O)CCC(NC(=O)c1cc(Cl)cc(Cl)c1)C(=O)N1CCC2(CCCC2)CC1)C(=O)N1CCC2(CCCC2)CC1` (stereo partly drawn) [(S)-5-(8-Aza-spiro[4.5]dec-8-yl)-4-[5-(8-aza-spiro[4.5]dec-8-yl)-4-(3,5-dichloro-benzoylamino)-5-oxo-pentanoylamino]-5-oxo-pentanoic acid] the same measures were 6.85 and 7.43.
With `CCCCC(NC(=O)CCC(NC(=O)c1cc(Cl)cc(Cl)c1)C(=O)N1CCC2(CCCC2)CC1)C(=O)O` (stereo not drawn) [2-[5-(8-Aza-spiro[4.5]dec-8-yl)-4-(3,5-dichloro-benzoylamino)-5-oxo-pentanoylamino]-hexanoic acid], the pIC50 is 5.98 in assay [1] and 7.02 in assay [2].
For `CCCCCN(CCCCC)C(=O)[C@H](CCC(=O)O)NC(=O)CCC(NC(=O)c1cc(Cl)cc(Cl)c1)C(=O)N1CCC2(CCCC2)CC1` (stereo partly drawn) [(S)-4-[5-(8-Aza-spiro[4.5]dec-8-yl)-4-(3,5-dichloro-benzoylamino)-5-oxo-pentanoylamino]-4-dipentylcarbamoyl-butyric acid] the same measures were 6.87 and 7.32.
For `O=C(O)CC[C@@H](NC(=O)CCC(NC(=O)c1cc(Cl)cc(Cl)c1)C(=O)N1CCC2(CCCC2)CC1)C(=O)NCCCc1ccccc1` (stereo partly drawn) [(R)-4-[5-(8-Aza-spiro[4.5]dec-8-yl)-4-(3,5-dichloro-benzoylamino)-5-oxo-pentanoylamino]-4-(3-phenyl-propylcarbamoyl)-butyric acid] the same measures were 5.73 and 6.93.

The record behind these values is BindingDB's records for doi:10.1021/jm950372w (Rotta Research Laboratorium, 1996).
